From PMC12675387, “Receptor interaction profiles of 4-alkoxy-2,6-dimethoxyphenethylamines (Ψ derivatives) and related amphetamines” (Frontiers in Pharmacology, 2025)

Key:
human 5-HT2B receptor = target: T1, human 5-HT2B receptor (Homo sapiens, UniProt P41595); test: Activation potency and efficacy at the 5-HT2B receptor (Fluo-4 calcium, HEK 293 cells); format: cell-based; settings: for Emax: HEK293, relative to 5-HT (100%), read-out: h5-HT2B activation efficacy Emax ± SD
T1 construct: expressed in transfected cells; host or cells: HEK 293 cells
Procedure: The activation potency and efficacy at the 5-HT2B receptor were determined as previously described by [Luethi et al. (2018)]. In summary, HEK 293 cells stably transfected with the human 5-HT2B receptor were seeded in poly-D-lysine-coated 96 well plates at a density of 50,000 cells per well overnight at 37 °C in high glucose Dulbecco’s modified Eagle’s medium (DMEM; Invitrogen, Zug, Switzerland) supplemented with 10% fetal calf serum (non-dialyzed and heat-inactivated), 250 mg/L Geneticin, and 100 U/mL penicillin, and 100 μg/mL streptomycin (Gibco). The growth medium was removed by snap inversion and the cells were exposed to 100 μL calcium indication Fluo-4-solution (Molecular Probes, Eugene, OR, United States) for 45 min at 31 °C. Thereafter, the Fluo-4-solution was removed once again by snap inversion and was replaced with fresh 100 μL Fluo-4-solution. Next, the cells were washed with HBSS and 20 mM HEPES using the EMBLA cell washer and then exposed to the assay buffer (100 μL per well). Afterwards, 25 μL of test compounds diluted in assay buffer were added to the plate online. Dose–response curves were determined using nonlinear regression and EC50 values were calculated. The activation efficacy was calculated relative to the 5-HT activity (defined as 100%).

h5-HT2A receptor = h5-HT2A receptor (Homo sapiens, UniProt P28223); test: Radioligand binding, 5-HT2A receptor ([3H]ketanserin); settings: for Selectivity (binding ratio) 5-HT2A/5-HT1A: preference for 5-HT2A (Ki 5-HT1A divided by Ki 5-HT2A); for Selectivity (binding ratio) 5-HT2A/5-HT2C: preference for 5-HT2A (Ki 5-HT2C divided by Ki 5-HT2A); for fold increase in 5-HT2A affinity over the 4-methoxy analog: pairs Ψ-2C-O-1/Ψ-2C-O-35 and TMA-6/Ψ-DODFMO
hSERT = hSERT (Homo sapiens, UniProt P31645); test: Radioligand binding, SERT ([3H]citalopram)
human 5-HT2A receptor = target: T2, human 5-HT2A receptor (Homo sapiens, UniProt P28223); test: Activation potency and efficacy at the 5-HT2A receptor (FLIPR calcium, NIH-3T3 cells); format: cell-based; settings: for Emax: NIH3T3, relative to 5-HT (100%), read-out: h5-HT2A activation efficacy Emax ± SD
T2 construct: expressed in transfected cells; host or cells: NIH-3T3 mouse embryonic fibroblasts
Procedure: The activation potency and efficacy at the 5-HT2A receptor were determined as previously described by [Luethi et al. (2018)]. In short, mouse embryonic fibroblasts (NIH-3T3 cells) stably transfected with the human 5-HT2A receptor were seeded in poly-D-lysine-coated 96 well plates at a density of 70,000 cells per 100 μL. Next, the cells were incubated in HEPES-Hank’s Balanced Salt Solution (HBSS) buffer (Gibco) for 1 h at 37 °C; the cells were then incubated with 100 μL of dye solution (fluorescence imaging plate reader [FLIPR] calcium 5 assay kit; Molecular Devices, Sunnyvale, CA, United States) per well for 1 h at 37 °C. The plate was then inserted into the FLIPR and 25 μL of the test compounds diluted in HEPES-HBSS buffer containing […] probenecid were added online. Increase of the fluorescence signal was measured and the activation potency (EC50) was calculated from the dose-response curves using nonlinear regression. The activation efficacy was calculated relative to 5-HT activity (defined as 100% activity).

human TAAR1 = target: T3, human TAAR1 (Homo sapiens, UniProt Q96RJ0); test: Activation potency at human TAAR1 (cAMP assay, HEK 293 cells); format: cell-based
T3 construct: expressed in transfected cells; host or cells: HEK 293 cells
T3 sequence (Q96RJ0 1-339): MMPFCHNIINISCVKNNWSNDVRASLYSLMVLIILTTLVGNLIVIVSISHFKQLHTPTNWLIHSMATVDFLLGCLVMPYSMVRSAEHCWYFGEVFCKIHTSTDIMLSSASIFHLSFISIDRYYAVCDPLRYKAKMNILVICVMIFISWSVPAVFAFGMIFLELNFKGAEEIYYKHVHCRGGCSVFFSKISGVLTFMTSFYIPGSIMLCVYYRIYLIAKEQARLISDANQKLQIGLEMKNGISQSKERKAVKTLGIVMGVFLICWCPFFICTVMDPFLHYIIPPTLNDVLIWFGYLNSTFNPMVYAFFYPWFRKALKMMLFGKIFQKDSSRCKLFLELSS
Procedure: The activation potency at the human TAAR1 was determined as previously described by [Luethi et al. (2018)]. In summary, recombinant HEK 293 cells stably transfected with the human TAAR1 were grown in culture flasks composed of 30 mL high glucose DMEM with 10% heat inactivated fetal calf serum, […] Geneticin, and […] hygromycin B at 37 °C and 5% CO2. The cells were grown to 80%–90% confluency before collection. The cells were washed with phosphate-buffer saline (PBS) and 5 mL of trypsin/EDTA solution were added for 5 min at 37 °C to detach the cells from the flask. Then, 45 mL of fresh medium were added to the flask and the total mixture was put into a falcon tube, which was centrifuged for 3 min at 900 rpm at room temperature. The supernatant was aspirated, and the remaining cell pellet was resuspended in fresh medium to a concentration of 5 × 10^5 cells per mL. Next, 100 μL of the cell mixture was transferred to a 96 well plate (BIOCOAT 6640, Becton Dickinson, Allschwil, Switzerland) and incubated for 20 h at 37 °C. For the cAMP assay, the medium was removed and replaced with 50 μL PBS lacking calcium or magnesium ions. The PBS was extracted via snap inversion and the plate was gently tapped on tissue to remove any remaining PBS solution. The plate was then incubated with Krebs-Ringer Bicarbonate buffer (90 μL/well; KRB, Sigma-Aldrich) containing 1 mM IBMX for 1 h at 37 °C and 5% CO2/95% air. Test compounds were investigated in duplicate at various concentrations ranging from 300 pM to 30 μM. A cAMP standard curve (concentration range of 0.13 nM–10 μM) was included on each 96 well plate. Additionally, a reference plate was used containing RO5256390, β-phenylethylamine and p-tyramine. Cells were incubated with either 30 μL of compound solution, β-phenylethylamine (which represented the maximal response) or a basal control in PBS (supplemented with 1 mM IBMX) for 40 min at 37 °C. Thereafter, the cells were incubated with 50 μL of 3× detection mix solution (consisting of Ru-cAMP Alexa700 anti-cAMP antibody and lysis buffer) for 40 min at 37 °C, while covered with black lids and under forceful shaking. The fluorescence (456 nm excitation wavelength; 630 and 700 nm emission wavelengths) was measured using a NanoScan reader (Innovate Optische Messtechnik, Berlin, Germany) and the FRET signal was calculated using the following equation: FRET (700 nm) – P × FRET (630 nm). P was equal to Ru (700 nm)/Ru (630 nm).

Sequence of hSERT (P31645 whole entry): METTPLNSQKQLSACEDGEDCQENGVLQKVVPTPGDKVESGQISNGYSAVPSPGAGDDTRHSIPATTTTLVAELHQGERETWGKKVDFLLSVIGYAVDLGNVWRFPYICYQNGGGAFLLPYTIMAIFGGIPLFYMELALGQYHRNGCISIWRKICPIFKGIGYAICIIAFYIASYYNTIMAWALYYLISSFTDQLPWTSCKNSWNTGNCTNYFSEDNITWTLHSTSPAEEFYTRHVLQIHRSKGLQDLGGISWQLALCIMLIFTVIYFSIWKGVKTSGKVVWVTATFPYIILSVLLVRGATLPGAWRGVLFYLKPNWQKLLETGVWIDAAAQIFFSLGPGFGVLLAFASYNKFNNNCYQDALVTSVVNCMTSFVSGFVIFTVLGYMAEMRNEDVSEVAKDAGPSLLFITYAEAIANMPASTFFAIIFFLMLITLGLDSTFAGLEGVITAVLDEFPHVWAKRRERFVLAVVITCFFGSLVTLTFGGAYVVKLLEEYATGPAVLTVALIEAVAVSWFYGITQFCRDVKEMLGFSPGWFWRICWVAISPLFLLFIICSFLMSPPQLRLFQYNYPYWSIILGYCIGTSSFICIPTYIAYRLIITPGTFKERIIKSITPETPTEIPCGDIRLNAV
T2 sequence (P28223 whole entry): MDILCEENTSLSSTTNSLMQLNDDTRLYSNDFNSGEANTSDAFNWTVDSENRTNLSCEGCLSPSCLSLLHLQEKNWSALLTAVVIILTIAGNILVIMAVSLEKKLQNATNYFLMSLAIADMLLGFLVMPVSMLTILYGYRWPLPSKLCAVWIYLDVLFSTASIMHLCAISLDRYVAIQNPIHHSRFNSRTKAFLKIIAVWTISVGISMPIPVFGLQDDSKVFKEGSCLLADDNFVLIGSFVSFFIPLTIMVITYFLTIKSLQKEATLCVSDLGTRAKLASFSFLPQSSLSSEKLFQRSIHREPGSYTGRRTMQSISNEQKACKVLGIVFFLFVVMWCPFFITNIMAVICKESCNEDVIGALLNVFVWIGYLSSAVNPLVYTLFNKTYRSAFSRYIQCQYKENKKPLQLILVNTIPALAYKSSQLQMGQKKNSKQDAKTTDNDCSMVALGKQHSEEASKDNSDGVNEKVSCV
Sequence of h5-HT2A receptor (P28223 whole entry): as above
T1 sequence (P41595 whole entry): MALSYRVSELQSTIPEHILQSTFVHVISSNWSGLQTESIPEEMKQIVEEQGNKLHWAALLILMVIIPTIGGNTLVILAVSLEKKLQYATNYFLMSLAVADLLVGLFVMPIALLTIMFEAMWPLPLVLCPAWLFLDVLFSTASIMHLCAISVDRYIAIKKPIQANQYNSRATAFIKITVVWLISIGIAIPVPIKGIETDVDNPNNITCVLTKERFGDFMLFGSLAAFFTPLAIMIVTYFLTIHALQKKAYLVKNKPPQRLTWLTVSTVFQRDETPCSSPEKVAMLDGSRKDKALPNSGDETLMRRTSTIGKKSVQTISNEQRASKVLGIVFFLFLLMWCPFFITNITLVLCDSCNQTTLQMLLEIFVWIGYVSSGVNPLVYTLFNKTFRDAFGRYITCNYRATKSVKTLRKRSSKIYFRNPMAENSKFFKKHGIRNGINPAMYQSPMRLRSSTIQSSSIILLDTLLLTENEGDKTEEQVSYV

SMILES | EC50 (human 5-HT2B receptor) [nM] | Ki (h5-HT2A receptor) [nM] | Selectivity (binding ratio) 5-HT2A/5-HT1A (h5-HT2A receptor) | Selectivity (binding ratio) 5-HT2A/5-HT2C (h5-HT2A receptor) | Ki (hSERT; hSERT Ki ± SD, [3H]citalopram) [nM] | EC50 (human 5-HT2A receptor) [nM] | Emax (human 5-HT2A receptor) [%] | EC50 (human TAAR1) [nM] | Emax (human 5-HT2B receptor) [%] | Ki (hSERT; SERT Ki, no binding observed) [nM] | fold difference in 5-HT2B activation potency, amphetamine vs phenethylamine counterpart (human 5-HT2B receptor; Ψ-MEM vs Ψ-2C-O-2) [fold] | fold increase in 5-HT2A affinity over the 4-methoxy analog (h5-HT2A receptor) | fold difference in 5-HT2A receptor affinity between Ψ derivative and its 2,4,5-trisubstituted counterpart (h5-HT2A receptor; TMA-6 vs TMA-2, Ψ-2C-O-16 vs 2C-O-16, Ψ-MALM vs MALM: higher affinity of the Ψ derivative) | type of agonism at the 5-HT2A receptor (human 5-HT2A receptor)
COc1cc(OCCF)cc(OC)c1CC(C)N (stereo not shown) [Ψ-MFEM, 2,6-dimethoxy-4-(2-fluoroethoxy)amphetamine] | > 10000 | 1400 | >4 | 7.1 | > 7500 | 1300 | 37 ± 2 | 1900 |  |  |  |  |  | 
C=C(C)COc1cc(OC)c(CCN)c(OC)c1 [Ψ-2C-O-3, 2,6-dimethoxy-4-methallyloxyphenethylamine] | 310 ± 240 | 32 ± 8 | 32 | 6.6 | > 7500 | 200 ± 20 | 23 ± 10 | 100 ± 60 | 17 ± 4 |  |  |  |  | 
COc1cc(OCC(F)(F)F)cc(OC)c1CCN [Ψ-2C-O-22, 2,6-dimethoxy-4-(2,2,2-trifluoroethoxy)phenethylamine] | > 10000 | 600 ± 60 | 4 | 3.7 | > 7500 | 3400 | 41 ± 8 | 47 ± 22 |  |  |  |  |  | 
COc1cc(OCc2ccccc2)cc(OC)c1CCN [Ψ-2C-O-27, 4-benzyloxy-2,6-dimethoxyphenethylamine] | > 10000 | 8 ± 1 | 280 | 15 | > 7500 | 410 ± 160 | 42 ± 8 | 3000 |  | < 7500 |  |  |  | 
CCOc1cc(OC)c(CC(C)N)c(OC)c1 (stereo not shown) [Ψ-MEM, 2,6-dimethoxy-4-ethoxyamphetamine] | 260 ± 160 | 490 ± 20 | >11 | 10 | > 7500 | 650 ± 210 | 54 ± 5 | 2200 | 28 ± 11 |  | 8 |  |  | 
COc1cc(OCC(F)F)cc(OC)c1CCN [Ψ-2C-O-21.5, 4-(2,2-difluoroethoxy)-2,6-dimethoxyphenethylamine] | > 10000 | 1600 | 0.8 | 1.8 | > 7500 | 740 ± 80 | 31 ± 5 | 41 ± 9 |  |  |  |  |  | 
COc1cc(OC(F)F)cc(OC)c1CC(C)N (stereo not shown) [Ψ-DODFMO, 4-(2,2-difluoromethoxy)-2,6-dimethoxyamphetamine] | 160 ± 50 | 84 ± 23 | 61 | 21 | > 7500 | 300 ± 100 | 54 ± 4 | > 30000 | 58 ± 23 |  |  | 3–4 fold |  | 
C=CCOc1cc(OC)c(CC(C)N)c(OC)c1 (stereo not shown) [Ψ-MALM, 4-allyloxy-2,6-dimethoxyamphetamine] | 55 ± 24 | 75 ± 11 | >75 | 10 | > 7500 | 180 ± 70 | 66 ± 6 | > 30000 | 69 ± 19 |  |  |  | 2–5 fold | partial agonists
CCOc1cc(OC)c(CCN)c(OC)c1 [Ψ-2C-O-2, 2,6-dimethoxy-4-ethoxyphenethylamine] | 2100 | 400 ± 280 | 1.8 | 3.8 | > 7500 | 99 ± 8 | 53 ± 4 | 230 ± 170 | 27 ± 8 |  |  |  |  | 
COc1cc(OC(F)F)cc(OC)c1CCN [Ψ-2C-O-35, 4-(2,2-difluoromethoxy)-2,6-dimethoxyphenethylamine] | 300 ± 230 | 72 ± 18 |  | 7.1 | > 7500 | 260 ± 200 | 16 ± 2 | > 30000 | 20 ± 13 |  |  | 3–4 fold |  | 
